Laboratory results taken from patent US20130296311A1, “INHIBITORS OF HCV NS5A” (PRESIDIO PHARMACEUTICALS, INC., priority 2010, published 2013).
Read-outs that look alike come from different tables or passages of the source.

System: HCV 1b_Huh-Luc/Neo-ET cell line persistently expressing a bicistronic genotype 1b replicon in Huh 7 cells
Assay: HCV replicon assay (luciferase readout, 72 h)
Assay type: cell-based, HCV genotype 1b
Settings: Hepatitis C virus
Summary of the method: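 Huh 7 cells carrying a bicistronic genotype 1b luciferase/neo replicon received compound in triplicate the day after plating. After 72 h, replicon levels were read as Bright-Glo luciferase activity, expressed as % of control; EC50 was fitted with a four-parameter logistic and determined several times.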

[1] = Huh-7, 72 h, read-out: Inhibition of HCV genotype 1b
[2] = Huh-7, read-out: Inhibition of HCV genotype 1b

With `COC(=O)N[C@H](C(=O)N1CCC[C@H]1c1nc2c([nH]1)-c1ccc(C#Cc3ccc4nc([C@@H]5CCCN5C(=O)[C@H](NC(=O)OC)c5ccccc5)[nH]c4c3)cc1CC2)C(C)C` [Compound 1103] the EC50 [1] was < 1 nM.
With `COC(=O)N[C@H](C(=O)N1CCC[C@H]1c1nc2c([nH]1)-c1ccc(C#Cc3ccc4nc([C@@H]5CCCN5C(=O)[C@H](NC(=O)OC5CCOCC5)c5ccccc5)[nH]c4c3)cc1CC2)C(C)C` [Compound 1104] the EC50 [1] was < 1 nM.
For `C=CC[C@H](NC(=O)OC)C(=O)N1CCC[C@H]1c1nc2ccc(C#Cc3ccc4c(c3)CCc3nc([C@@H]5CCCN5C(=O)[C@@H](NC(=O)OC)C(C)C)[nH]c3-4)cc2[nH]1` [Compound 1105], the EC50 [1] was < 1 nM.
In the case of `[2H]C([2H])([2H])C([2H])(C([2H])([2H])[2H])[C@]([2H])(NC(=O)OC)C(=O)N1CCC[C@H]1c1nc2ccc(C#Cc3ccc4c(c3)CCc3nc([C@@H]5CCCN5C(=O)[C@@H](NC(=O)OC)C(C)C)[nH]c3-4)cc2[nH]1` [Compound 1106], the EC50 [1] is reported as < 1 nM.
For `COC(=O)NC(C(=O)N1CCC[C@H]1c1nc2ccc(C#Cc3ccc4cc(-c5cnc([C@@H]6CCCN6C(=O)[C@@H](NC(=O)OC)C(C)C)[nH]5)ccc4n3)cc2[nH]1)C(C)C` (stereo partly shown) [Compound 1107], the EC50 [1] was < 1 nM.
For `COC(=O)N[C@H](C(=O)N1CCC[C@H]1c1ncc(-c2ccc3nc(C#Cc4ccc5nc([C@@H]6CCCN6C(=O)[C@@H](NC(=O)OC)C6CCOCC6)[nH]c5c4)ccc3c2)[nH]1)C1CCOCC1` [Compound 1108], the EC50 [1] was < 1 nM.
With `COC(=O)N[C@@H](C(=O)N1CCC[C@H]1c1ncc(-c2ccc3nc(C#Cc4ccc5nc([C@@H]6CCCN6C(=O)[C@H](NC(=O)OC)c6ccccc6)[nH]c5c4)ccc3c2)[nH]1)c1ccccc1` [Compound 1109] the EC50 [1] was < 1 nM.
In the case of `O=C(N[C@@H](C(=O)N1CCC[C@H]1c1ncc(-c2ccc3nc(C#Cc4ccc5nc([C@@H]6CCCN6C(=O)[C@H](NC(=O)OC6CCOCC6)c6ccccc6)[nH]c5c4)ccc3c2)[nH]1)c1ccccc1)OC1CCOCC1` [Compound 1110], the EC50 [1] is reported as < 1 nM.
With `COC(=O)N[C@H](C(=O)N1CCC[C@H]1c1ncc(-c2ccc3cc(C#Cc4ccc5nc([C@@H]6CCCN6C(=O)[C@@H](NC(=O)OC)C(C)C)[nH]c5c4)ccc3c2)[nH]1)C(C)C` [Compound 1111] the EC50 [1] was < 1 nM.
With `COC(=O)N[C@H](C(=O)N1CCC[C@H]1c1ncc(-c2cccc3c(C#Cc4ccc5nc([C@@H]6CCCN6C(=O)[C@@H](NC(=O)OC)C(C)C)[nH]c5c4)cccc23)[nH]1)C(C)C` [Compound 1112] the EC50 [1] was < 1 nM.
`COC(=O)N[C@H](C(=O)N1CCC[C@H]1c1ncc(C#Cc2cccc3c(C#Cc4cnc([C@@H]5CCCN5C(=O)[C@@H](NC(=O)OC)C(C)C)[nH]4)cccc23)[nH]1)C(C)C` [Compound 1113] was tested, and the EC50 [1] was < 1 nM.
For `COC(=O)N[C@H](C(=O)N1CCC[C@H]1c1ncc(C#Cc2ccc3cc(C#Cc4cnc([C@@H]5CCCN5C(=O)[C@@H](NC(=O)OC)C(C)C)[nH]4)ccc3c2)[nH]1)C(C)C` [Compound 1114], the EC50 [1] was < 1 nM.
For `COC(=O)N[C@H](C(=O)N1CCC[C@H]1c1ncc(-c2ccc(C#Cc3ccc(-c4cnc([C@@H]5CCCN5C(=O)[C@@H](NC(=O)OC)C(C)C)[nH]4)cc3C(=O)OC)cc2)[nH]1)C(C)C` [Compound 1200], the EC50 [2] was < 1 nM.
For `COC(=O)N[C@@H](C(=O)N1CCC[C@H]1c1ncc(-c2ccc(C#Cc3ccc(-c4cnc([C@@H]5CCCN5C(=O)[C@H](NC(=O)OC)c5ccccc5)[nH]4)cc3C(=O)OC)cc2)[nH]1)c1ccccc1` [Compound 1201], the EC50 [2] was < 1 nM.
In the case of `COC(=O)N[C@H](C(=O)N1CCC[C@H]1c1ncc(-c2ccc(C#Cc3ccc(-c4cnc([C@@H]5CCCN5C(=O)[C@@H](NC(=O)OC)C(C)C)[nH]4)cc3C#N)cc2)[nH]1)C(C)C` [Compound 1202], the EC50 [2] is reported as < 1 nM.
For `COC(=O)N[C@@H](C(=O)N1CCC[C@H]1c1ncc(-c2ccc(C#Cc3ccc(-c4cnc([C@@H]5CCCN5C(=O)[C@H](NC(=O)OC)c5ccccc5)[nH]4)cc3C#N)cc2)[nH]1)c1ccccc1` [Compound 1203], the EC50 [2] was < 1 nM.
For `COC(=O)N[C@H](C(=O)N1CCC[C@H]1c1ncc(-c2ccc(C#Cc3ccc(-c4cnc([C@@H]5CN(C(=O)OC)CCN5C(=O)[C@@H](NC(=O)OC)C(C)C)[nH]4)cc3)cc2)[nH]1)C(C)C` [Compound 1204], the EC50 [2] was < 1 nM.
For `COC(=O)N[C@H](C(=O)N1CCN(C(=O)OC)C[C@H]1c1ncc(-c2ccc(C#Cc3ccc(-c4cnc([C@@H]5CCCN5C(=O)[C@@H](NC(=O)OC)C5CCOCC5)[nH]4)cc3)cc2)[nH]1)C(C)C` [Compound 1205], the EC50 [2] was < 1 nM.
For `COC(=O)N[C@H](C(=O)N1CCN(C(=O)OC)C[C@H]1c1ncc(-c2ccc(C#Cc3ccc(-c4cnc([C@@H]5CCCN5C(=O)[C@H](NC(=O)OC)c5ccccc5)[nH]4)cc3)cc2)[nH]1)C(C)C` [Compound 1206], the EC50 [2] was < 1 nM.
In the case of `COC(=O)N[C@H](C(=O)N1CCN(C(=O)OC)C[C@H]1c1ncc(-c2ccc(C#Cc3ccc(-c4cnc([C@@H]5CCCN5C(=O)[C@H](NC(=O)OC5CCOCC5)c5ccccc5)[nH]4)cc3)cc2)[nH]1)C(C)C` [Compound 1207], the EC50 [2] is reported as < 1 nM.
For `COC(=O)N[C@H](C(=O)N1CCC[C@H]1c1ncc(-c2ccc(C#Cc3ccc(-c4cnc([C@@H]5CCCN5C(=O)[C@@H](NC(=O)OC)C(C)C)[nH]4)cc3C(=O)N3CCCC3)cc2)[nH]1)C(C)C` [Compound 1208], the EC50 [2] was < 1 nM.
For `CCN(CC)C(=O)c1cc(-c2cnc([C@@H]3CCCN3C(=O)[C@@H](NC(=O)OC)C(C)C)[nH]2)ccc1C#Cc1ccc(-c2cnc([C@@H]3CCCN3C(=O)[C@@H](NC(=O)OC)C(C)C)[nH]2)cc1` [Compound 1209], the EC50 [2] was < 1 nM.
With `COC(=O)N[C@H](C(=O)N1CCC[C@H]1c1ncc(-c2ccc(C#Cc3ccc(-c4cnc([C@@H]5CCCN5C(=O)[C@H](NC(=O)OC)c5ccccc5)[nH]4)cc3)cc2)[nH]1)[C@@H](C)OC` [Compound 1210] the EC50 [2] was < 1 nM.
With `COC(=O)N[C@H](C(=O)N1CCC[C@H]1c1ncc(-c2ccc(C#Cc3ccc(-c4cnc([C@@H]5CCCN5C(=O)[C@H](NC(=O)OC)c5ccccc5OC)[nH]4)cc3)cc2)[nH]1)[C@@H](C)OC` [Compound 1211] the EC50 [2] was < 1 nM.
`COC(=O)N[C@H](C(=O)N1CCC[C@H]1c1ncc(-c2ccc(C#Cc3ccc(-c4cnc([C@@H]5CCCN5C(=O)[C@H](NC(=O)OC)c5ccsc5)[nH]4)cc3)cc2)[nH]1)[C@@H](C)OC` [Compound 1212] was tested, and the EC50 [2] was < 1 nM.
With `COC(=O)N[C@H](C(=O)N1CCC[C@H]1c1ncc(-c2ccc(C#Cc3ccc(-c4cnc([C@@H]5CCCN5C(=O)[C@H](NC(=O)OC)c5cccs5)[nH]4)cc3)cc2)[nH]1)[C@@H](C)OC` [Compound 1213] the EC50 [2] was < 1 nM.
For `CC[C@H](C)[C@H](NC(=O)OC)C(=O)N1CCC[C@H]1c1ncc(-c2ccc(C#Cc3ccc(-c4cnc([C@@H]5CCCN5C(=O)[C@@H](NC(=O)OC)[C@@H](C)CC)[nH]4)cc3)cc2)[nH]1` [Compound 1216], the EC50 [2] was < 1 nM.
For `CC[C@@H](C)[C@H](NC(=O)OC)C(=O)N1CCC[C@H]1c1ncc(-c2ccc(C#Cc3ccc(-c4cnc([C@@H]5CCCN5C(=O)[C@@H](NC(=O)OC)[C@H](C)CC)[nH]4)cc3)cc2)[nH]1` [Compound 1217], the EC50 [2] was < 1 nM.
In the case of `COC(=O)N[C@H](C(=O)N1CCC[C@H]1c1ncc(-c2ccc(C#Cc3ccc(-c4cnc([C@@H]5CCCN5C(=O)[C@@H](NC(=O)OC)C5CCOCC5)[nH]4)cc3)cc2)[nH]1)C1CCOCC1` [Compound 1218], the EC50 [2] is reported as < 1 nM.
`COC(=O)N[C@H](C(=O)N1CCC[C@H]1c1ncc(-c2ccc(C#Cc3ccc(-c4cnc([C@@H]5CCCN5C(=O)[C@@H](NC(=O)OC)C5CCOCC5)[nH]4)cc3)cc2)[nH]1)C(C)C` [Compound 1219] was tested, and the EC50 [2] was < 1 nM.
With `CC[C@H](C)[C@H](NC(=O)OC)C(=O)N1CCC[C@H]1c1ncc(-c2ccc(C#Cc3ccc(-c4cnc([C@@H]5CCCN5C(=O)[C@@H](NC(=O)OC)C5CCOCC5)[nH]4)cc3)cc2)[nH]1` [Compound 1220] the EC50 [2] was < 1 nM.
For `COC(=O)N[C@H](C(=O)N1CCC[C@H]1c1ncc(-c2ccc(C#Cc3ccc(-c4cnc([C@@H]5CCCN5C(=O)[C@@H](NC(=O)OC)C5CCOCC5)[nH]4)cc3)cc2)[nH]1)C1CCCC1` [Compound 1221], the EC50 [2] was < 1 nM.
In the case of `COC(=O)N[C@@H](C(=O)N1CCC[C@H]1c1ncc(-c2ccc(C#Cc3ccc4nc([C@@H]5CCCN5C(=O)[C@H](NC(=O)OC)c5ccccc5)[nH]c4c3)cc2F)[nH]1)c1ccccc1` [Compound 1222], the EC50 [2] is reported as < 1 nM.
With `COC(=O)N[C@H](C(=O)N1CCC[C@H]1c1ncc(-c2ccc(C#Cc3ccc4nc([C@@H]5CCCN5C(=O)[C@@H](NC(=O)OC)C(C)C)[nH]c4c3)cc2F)[nH]1)C(C)C` [Compound 1223] the EC50 [2] was < 1 nM.
`COC(=O)N[C@H](C(=O)N[C@@H](C)c1ncc(-c2ccc(C#Cc3ccc4nc([C@@H]5CCCN5C(=O)[C@@H](NC(=O)OC)C(C)C)[nH]c4c3)cc2)[nH]1)C(C)C` [Compound 1225] was tested, and the EC50 [2] was < 1 nM.
For `COC(=O)N[C@@H](C(=O)N[C@@H](C)c1ncc(-c2ccc(C#Cc3ccc4nc([C@@H]5CCCN5C(=O)[C@H](NC(=O)OC)c5ccccc5)[nH]c4c3)cc2)[nH]1)c1ccccc1` [Compound 1226], the EC50 [2] was < 1 nM.
In the case of `COC(=O)N[C@H](C(=O)N[C@@H](C)c1ncc(-c2ccc(C#Cc3ccc4nc([C@@H]5CCCN5C(=O)[C@@H](NC(=O)OC)C5CCOCC5)[nH]c4c3)cc2)[nH]1)C1CCOCC1` [Compound 1227], the EC50 [2] is reported as 1 to 9.9 nM.
With `COC(=O)N[C@H](C(=O)N1CCN(C(=O)OC)C[C@H]1c1ncc(-c2ccc(C#Cc3ccc4nc([C@@H]5CCCN5C(=O)[C@@H](NC(=O)OC)C(C)C)[nH]c4c3)cc2)[nH]1)C(C)C` [Compound 1228] the EC50 [2] was < 1 nM.
In the case of `COC(=O)N[C@H](C(=O)N1CCN(C(=O)OC)C[C@H]1c1ncc(-c2ccc(C#Cc3ccc4nc([C@@H]5CCCN5C(=O)[C@@H](NC(=O)OC)C5CCOCC5)[nH]c4c3)cc2)[nH]1)C(C)C` [Compound 1229], the EC50 [2] is reported as < 1 nM.
For `COC(=O)N[C@H](C(=O)N1CCN(C(=O)OC)C[C@H]1c1ncc(-c2ccc(C#Cc3ccc4nc([C@@H]5CCCN5C(=O)[C@H](NC(=O)OC)c5ccccc5)[nH]c4c3)cc2)[nH]1)C(C)C` [Compound 1230], the EC50 [2] was < 1 nM.
